{
  "source": "patent US7429580B2",
  "about": "“Compositions of an anticonvulsant and an antipsychotic drug and methods of using the same for affecting weight loss” (Orexigen Therapeutics, Inc., priority 2004, dated 2008)",
  "key": {"[1]": {"assay": "Case study Example 14: zonisamide, olanzapine, valproate and bupropion", "format": "in vivo, human", "settings": "for effect on weight gain resulting from olanzapine and valproate: summary of the case", "procedure": "At this point, zonisamide was added to their medication regimen at 100 mg/day and the dose was increased to 200 mg/day after two weeks."}, "mice": {"system": "mice", "assay": "Food intake in mice (acute, after fast / intra-peritoneal injection)", "format": "in vivo", "settings": "for food intake: other preclinical experiments, each compound alone"}, "[2]": {"assay": "Rat-weight gain assay: rodent model of mirtazapine-induced weight gain", "format": "in vivo, rats", "settings": "addition to concomitant mirtazapine treatment; doses tbd", "procedure": "We have developed a model to pre-clinically test the effects of mirtazapine on body weight gain. […] Initially, a dose of 30 mg/kg of zonisamide (bid) is used, but the dose in the experiment ranges from 20 mg/kg to 90 mg/kg (bid). […] Mirtazapine or setiptiline are used as solutions in minipumps. The concentration of the solution ranges between 0.1 μM to 10 mM. In some experiments, the concentration is calculated to provide a dose of about 1 mg/kg/day. In certain experiments, the concentration is 10 μM.\nIn a 4×3 design rats receive implants that secrete mirtazapine, or setiptiline, or vehicle. Some rats also receive co-treatment with saline, some receive zonisamide, some receive bupropion, and others receive co-treatment with zonisamide plus bupropion. In this way cohorts of 10 rats receive all possible combinations of the weight loss drug(s) with mirtazapine or setiptiline.\nFemale Sprague-Dawley rats weighing about 300 grams at the start of the experiment are used. Under isoflurane anesthesia, Alzet osmotic minipumps (2 ml2) are implanted subcutaneously between the shoulder blades. The rats are returned to their home cages after recovery. The minipumps deliver 5 μL per hour for 14 days. A range of doses of mirtazapine (from 0.1 to 20 mg/kg/day dissolved in DMSO/saline) are used. […] Food consumed and animal weights are recorded every 3 days, to minimize disruption of the animals."}, "[3]": {"assay": "Case study Example 13: zonisamide, paroxetine and risperidone", "format": "in vivo, human", "procedure": "They were therefore started on zonisamide 100 mg, incraesed to 200 mg. […] The dose was then increased to 300 mg and then to 600 mg."}, "POMC neurons": {"system": "POMC neurons", "assay": "Electrophysiological activity of POMC neurons in brain slices from POMC-EGFP mice", "format": "cell-based", "procedure": "(§1) The electrophysiological activity of Proopiomelanocortin (POMC) neurons in brain slices from POMC-EGFP mice are recorded. The POMC neurons in these mice are identified by the expression of green fluorescent protein (EGFP) in these, and only these, cells. The frequency of action potentials in these neurons are recorded using standard electrophysiological techniques. In particular loose cell attached patch configuration is used to determine action potential frequency, whilst minimally disturbing the cells.\nas §1, with “particular,” for “particular”"}, "[4]": {"system": "serotonin and dopamine synthesis", "settings": "cited from earlier work"}, "[5]": {"settings": "cited from earlier work"}, "[6]": {"assay": "Rodent model of olanzapine-induced weight gain", "format": "in vivo, rats", "settings": "addition to concomitant olanzapine treatment (about 1.75 mg/kg/day); doses tbd", "procedure": "Rats receive implants that secrete olanzapine (or vehicle in control groups). Some also receive co-treatment with zonisamide; others get co-treatment with zonisamide plus bupropion. Initially, a dose of 30 mg/kg of zonisamide (bid) is used, but the dose in the experiment ranges from 20 mg/kg to 90 mg/kg (bid). […] Olanzapine is used as a solution in minipumps. The concentration of the solution ranges between 0.1 μM to 10 mM. In some experiments, the concentration is calculated to provide a dose of about 1.75 mg/kg/day. In certain experiments, the concentration is 10 μM.\nFemale Sprague-Dawley rats weighing about 300 grams at the start of the experiment are used. Under isoflurane anesthesia, Alzet osmotic minipumps (2 ml2) are implanted subcutaneously, between the shoulder blades. The rats are returned to their home cages after recovery. The minipumps deliver 5 μL per hour for 14 days. Olanzapine is dissolved in dH2O+10% dilute lactic acid. A pH of about 3.5 enables the olanzapine to dissolve completely and produce a golden solution. This pH level has no effect on the animals in either the drug groups or the vehicle group. The animals are housed individually and are supplied with standard laboratory chow. Food consumed and animal weights are recorded every 3 days, to minimize disruption of the animals."}, "dopamine D2 receptors": {"target": "dopamine D2 receptors (Homo sapiens, UniProt P14416)", "sequence (P14416 whole entry)": "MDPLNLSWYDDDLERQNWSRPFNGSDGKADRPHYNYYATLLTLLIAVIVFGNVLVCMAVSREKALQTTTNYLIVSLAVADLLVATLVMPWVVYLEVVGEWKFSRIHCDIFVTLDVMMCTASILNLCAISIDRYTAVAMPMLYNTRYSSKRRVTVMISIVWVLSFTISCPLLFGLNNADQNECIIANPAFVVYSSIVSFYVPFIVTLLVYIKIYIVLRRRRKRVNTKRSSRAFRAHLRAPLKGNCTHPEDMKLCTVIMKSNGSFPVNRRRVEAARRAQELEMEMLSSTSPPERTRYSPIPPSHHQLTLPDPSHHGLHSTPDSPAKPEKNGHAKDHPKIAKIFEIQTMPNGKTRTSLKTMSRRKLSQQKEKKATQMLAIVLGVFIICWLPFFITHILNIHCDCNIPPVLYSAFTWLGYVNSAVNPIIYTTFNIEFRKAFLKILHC", "settings": "cited from earlier work"}, "[7]": {"assay": "Case study Example 12: zonisamide added to clonazepam, fluoxetine and lamotrogine", "format": "in vivo, human", "settings": "person, bipolar disorder; zonisamide 100 mg qD added to clonazepam, fluoxetine, lamotrogine", "procedure": "A person having biopolar disorder, Type I, had been treated for just over year by their psychiatrist using clonazepam 1 mg qHS, fluoxetine 20 mg qd, and lamotrogine 300 mg qD. One particular complaint was that they had “constant thoughts of eating”. Their psychiatrist started them on zonisamide 100 mg qD. […] The dose was continued and despite multiple stressors at home, they continued to do well on the treatment regimen."}},
  "note": "“Also recorded” adds a separate entry of the source. Read-outs that look alike come from different tables or passages of the source.",
  "data": [
    {"smiles": "CC(NC(C)(C)C)C(=O)c1cccc(Cl)c1", "note": "(stereo not shown) [bupropion]", "values": [
      {"measurement": "weight lost", "setting": "[1]; after 6 months, bupropion 150 mg/day added to olanzapine and valproate", "result": 23.6, "unit": "lbs"},
      {"measurement": "adverse effect reported", "setting": "[1]; bupropion dose raised to 300 mg/day", "result": "feeling hyperactive"},
      {"measurement": "adverse effect limiting higher dose", "setting": "[1]; higher dose (300-400 mg/day) of bupropion", "result": "precipitation of hypomanic symptoms"},
      {"measurement": "weight regained", "setting": "[1]; over the next 10 months while continuing bupropion", "result": 10.6, "unit": "lbs"},
      {"measurement": "effect on weight gain resulting from olanzapine and valproate", "setting": "[1]", "result": "helped in decreasing weight gain"},
      {"measurement": "food intake after intra-peritoneal injection", "setting": "mice; mice", "result": "pronounced effects on food intake"},
      {"measurement": "food intake", "setting": "mice", "result": "inhibit food intake"},
      {"measurement": "weight gain associated with mirtazapine", "setting": "[2]", "result": "decreases the weight gain associated with mirtazapine"},
      {"measurement": "weight loss", "setting": "[3]; trial of bupropion alone, patient on paroxetine and risperidone", "result": "did not cause significant weight loss"},
      {"measurement": "electrophysiological activity of POMC neurons", "setting": "POMC neurons", "result": "increase the electrophysiological activity of POMC neurons"}
    ]},
    {"smiles": "NS(=O)(=O)Cc1noc2ccccc12", "note": "[zonisamide]", "values": [
      {"measurement": "serotonin and dopamine synthesis rates", "setting": "[4]", "result": "increases serotonin and dopamine synthesis rates"},
      {"measurement": "weight lost", "setting": "[1]; over the next 4 months, zonisamide 100 then 200 mg/day added to bupropion, olanzapine, valproate", "result": 15, "unit": "lbs"},
      {"measurement": "effect on weight gain resulting from olanzapine and valproate", "setting": "[1]", "result": "helped in further offsetting weight gain"},
      {"measurement": "adverse effects", "setting": "[1]; zonisamide 100 then 200 mg/day added to bupropion, olanzapine, valproate", "result": "no adverse effects"},
      {"measurement": "weight reducing effects in humans", "setting": "[5]; Gadde et al, 2003, 2001", "result": "well demonstrated in humans"},
      {"measurement": "tolerability / side effects", "setting": "[5]; compared with placebo treatment, Gadde et al, JAMA 2003", "result": "well tolerated; also recorded: fatigue being the only side effect that occurred more frequently than with placebo treatment"},
      {"measurement": "weight loss", "setting": "[5]; patients presenting with primary obesity, Gadde et al, JAMA 2003", "result": "significant weight loss"},
      {"measurement": "food intake after intra-peritoneal injection", "setting": "mice; mice", "result": "pronounced effects on food intake"},
      {"measurement": "food intake over 24 hrs after intra-peritoneal injection", "setting": "mice; mice", "result": "pronounced effects on food intake"},
      {"measurement": "food intake", "setting": "mice", "result": "inhibit food intake"},
      {"measurement": "weight gain associated with olanzapine", "setting": "[6]", "result": "decrease the weight gain associated with olanzapine"},
      {"measurement": "weight gain associated with mirtazapine", "setting": "[2]", "result": "decreases the weight gain associated with mirtazapine"},
      {"measurement": "weight lost", "setting": "[3]; in 3 weeks, zonisamide 100 mg increased to 200 mg", "result": 12, "unit": "pounds"},
      {"measurement": "weight relative to baseline", "setting": "[3]; in 5 months, zonisamide increased to 300 mg and then 600 mg", "result": "their weight returned to baseline"},
      {"measurement": "electrophysiological activity of POMC neurons", "setting": "POMC neurons", "result": "increase the electrophysiological activity of POMC neurons"},
      {"measurement": "stimulation of dopamine D2 receptors", "setting": "dopamine D2 receptors", "result": "stimulates dopamine D2 receptors"},
      {"measurement": "craving for food", "setting": "[7]", "result": "significantly reduced their craving for food"},
      {"measurement": "weight gain", "setting": "[7]", "result": "prevented weight gain"}
    ]}
  ]
}
